Experimental data published in US20130296430A1, “COMPOSITIONS AND METHODS FOR TREATING AUTISM AND AUTISM SPECTRUM DISORDER” (priority 2012, published 2013).

Test system: children with autism
Test: 12-week placebo-controlled study of NAC: safety evaluation, adverse events (DOTES)
Type: in vivo, human
Text: Primary behavioral outcome measures, include, for example, but are not limited to, (a) the Aberrant Behavior Checklist (ABC) irritability subscale; and (b) Dosage Record and Treatment Emergent Symptom Scale (DOTES), which provides information on the presence, frequency and severity of side effects (Guy, W., ECDEU Assessment Manual for Psychopharmacology, Rockville, Md., U.S. Department of Health, Education, and Welfare (1976)). Secondary behavioral outcome measures include, but are not limited to, (a) the Clinical Global Impression (CGI); (b) ABC-Stereotypy subscale; (c) Repetitive Behavior Scale (RBS); and (d) Social responsiveness scale (SRS).
After the screening phase, baseline measures were obtained from subjects continuing to meet inclusion and exclusion criteria. Subjects were then randomized to either placebo or active based on age and gender. As NAC is a nutritional supplement, the quality control is predictably variable and therefore purity is not as stringent as prescription medications. Therefore, in the present study, the stability of the compound was ascertained and the integrity of the active agent was protected by packaging each NAC doses in individual pockets. The active compound and matching placebo were provided by BioAdvantex Pharma, Inc. (Mississauga, Ontario, Canada). […] Subjects randomized to the active drug were initiated at the dose of 900 mg every day for the first 4 weeks, then 900 mg twice daily for 4 weeks and 900 mg three times daily for 4 weeks. (This dose selection was based on previously published studies for other psychiatric conditions (Grant, J. et al., Arch Gen Psychiatry, 66:468-475 (2009); Berk, M. et al., Biol Psychiatry, 64:361-368 (2008); Berk, M. et al., Bio Psychiatry, 64:468-475 (2008)) and the previous experience of our group in studies of children with cystic fibrosis). Alternatively, subjects were initiated at the dose of 900 mg per day, 1,800 mg per day, or 2,700 mg per day of NAC. Alternatively, the subjects were initiated at the dose ranging from 900 mg per day to 2,700 mg per day of NAC.
If a subject could not tolerate a specific dose, s/he would be maintained at the highest tolerated dose. Subjects were evaluated at baseline, week 4, week 8 and week 12. The Aberrant Behavioral Checklist (ABC) (Aman, M. et al., Am J Ment Defic. 89:492-502 (1985)), the Clinical Global Impressions (CGI) (Guy, W., ECDEU Assessment Manual for Psychopharmacology, Rockville, Md., U.S. Department of Health, Education, and Welfare (1976)), and the Dosage Record and Treatment Emergent Symptom Scale (DOTES) (Guy, W., 1976, ECDEU Assessment Manual for Psychopharmacology, Rockville, Md., U.S. Department of Health, Education, and Welfare) were obtained in each visit. Additional secondary measures were obtained at baseline and at week 12 and included the social responsiveness scale (SRS) (Constantino, J. et al., J. Dev Behav Pediatr., 21:2-11 (2000); Constantino, J. et al., J Autism Dev Disord., 33:427-433 (2003)), and the repetitive behavior scale-revised (RBS-R) (Bodfish, J. et al., The Repetitive Behavior Scale: A test manual (1998)).
The following adverse events (AEs) were more frequently reported in the NAC group than the placebo group, but differences were not statistically different (all p>0.100): depressed affect (1 vs. 0), akathisia (1 vs. 0), constipation (3 vs. 2), nausea/vomiting (6 vs. 3), increased appetite (2 vs. 0), diarrhea (3 vs. 1). The following AEs were reported more in the placebo group than the NAC group: excitement/agitation (3 vs. 2), increased motor activity (3 vs. 2), nasal congestion (6 vs. 4), decreased appetite (3 vs. 2), tremor (1 vs. 0), sweating (1 vs. 0), syncope/dizziness (1 vs. 0), increased salivation (2 vs. 0). One subject in each group reported insomnia and stomachache.

[1] = NAC group, same in placebo group

## CC(=O)N[C@@H](CS)C(=O)O [NAC, N-acetylcysteine]
12-week study, up to 900 mg three times daily
  side effects observed, overall: Minimal side effects
NAC group, placebo 0, p>0.100
  adverse event reported: akathisia (count): 1
  adverse event reported: depressed affect (count): 1
  adverse event reported: increased appetite (count): 2
NAC group, placebo 1
  adverse event reported: sweating (count): 0
  adverse event reported: syncope/dizziness (count): 0
  adverse event reported: tremor (count): 0
NAC group, placebo 1, p>0.100
  adverse event reported: diarrhea (count): 3
NAC group, placebo 2
  adverse event reported: increased salivation (count): 0
NAC group, placebo 2, p>0.100
  adverse event reported: constipation (count): 3
NAC group, placebo 3
  adverse event reported: decreased appetite (count): 2
  adverse event reported: excitement/agitation (count): 2
  adverse event reported: increased motor activity (count): 2
NAC group, placebo 3, p>0.100
  adverse event reported: nausea/vomiting (count): 6
NAC group, placebo 6
  adverse event reported: nasal congestion (count): 4
[1]
  adverse event reported: insomnia (subjects): One
  adverse event reported: stomachache (subjects): One
Active group, later medical evaluation revealed severe constipation
  subjects with worsening of baseline agitation and irritability requiring early termination: one
